# Laboratory results: ChEMBL document CHEMBL3596145, “Structure and inhibition studies of a type II beta-carbonic anhydrase psCA3 from Pseudomonas aeruginosa” (Bioorg Med Chem, 2015)
# Activity calls are given as the source filed them. The calls are words filed in the database; no cut-off is given here.
# Tested on: Pseudomonas aeruginosa
# Test: Induction of growth defect in Pseudomonas aeruginosa PAO1 up to 1 mM
# Format: functional, organism-based
row,Compound,Activity
1,NS(N)(=O)=O [SULFAMIDE],Active

# Tested on: Pseudomonas aeruginosa
# Test: Induction of growth delay of Pseudomonas aeruginosa PAO1 assessed as growth delay time
# Format: functional
row,Compound,Time [h]
1,NS(N)(=O)=O [SULFAMIDE],1

# Target: T1, Carbonic anhydrase (Pseudomonas aeruginosa (strain ATCC 15692 / PAO1 / 1C / PRS 101 / LMG12228), UniProt Q9HVB9)
# T1 sequence (Q9HVB9 whole entry): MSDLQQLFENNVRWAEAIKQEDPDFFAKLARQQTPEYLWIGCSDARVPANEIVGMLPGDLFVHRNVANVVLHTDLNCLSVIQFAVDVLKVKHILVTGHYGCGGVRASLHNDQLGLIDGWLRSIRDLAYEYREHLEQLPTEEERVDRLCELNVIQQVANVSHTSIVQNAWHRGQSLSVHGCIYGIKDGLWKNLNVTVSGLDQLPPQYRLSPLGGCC
# Test: biochemical
# Format: cell-based, BL21-DE3
# Description: Inhibition of Pseudomonas aeruginosa PAO1 type-2 beta-carbonic anhydrase psCA3 expressed in Escherichia coli Tuner BL21 (DE3) cells pre-incubated for 15 mins at pH 8.3 and 293K by CO2 hydration reaction based colorimetric stopped-flow method
row,Compound,Ki [µM]
1,Nc1cccc(S(N)(=O)=O)c1,0.032
2,CCN(CC)C(=S)S [DITIOCARB SODIUM],330
3,OB(O)c1ccccc1 [PHENYLBORONIC ACID],8
4,[N-]=[N+]=[N-] [SODIUM AZIDE],770
5,O=C([O-])O.[Na+] [SODIUM BICARBONATE],3200
6,O=S([O-])O.[Na+] [SODIUM BISULFITE],7000
7,[Br-].[Na+] [SODIUM BROMIDE],> 100000
8,S=C(S)S [SODIUM CARBONOTRITHIOATE],840
9,[Cl-].[Na+] [SODIUM CHLORIDE],> 100000
10,N#CO [SODIUM CYANATE],650
11,[F-].[Na+] [SODIUM FLUORIDE],> 100000
12,S [SODIUM HYDROSULFIDE],620
13,O=S(=O)(O)ONOS(=O)(=O)O [SODIUM IMINODISULFATE],4700
14,[I-].[Na+] [SODIUM IODIDE],> 100000
15,O=[N+]([O-])[O-].[Na+] [SODIUM NITRATE],14200
16,O=NO [SODIUM NITRITE],940
17,[O-][Cl+3]([O-])([O-])O [SODIUM PERCHLORATE],> 100000
18,O=S(=O)(O)OOS(=O)(=O)O [SODIUM PERSULFATE],720
19,O=[Se](=O)(O)O [SODIUM SELENATE],23500
20,N#C[SeH] [SODIUM SELENOCYANATE],680
21,O=S(=O)([O-])[O-].[Na+].[Na+] [SODIUM SULFATE ANHYDROUS],> 100000
22,O=[Te](=O)(O)O [SODIUM TELLURATE],7900
23,O=BOB(O)OB(O)OB=O [SODIUM TETRABORATE],9100
24,F[B-](F)(F)F.[Na+] [SODIUM TETRAFLUOROBORATE],> 100000
25,NS(=O)(=O)O [SULFAMATE],38
26,NS(N)(=O)=O [SULFAMIDE],8
27,N#C[S-].[Na+] [THIOCYANATE SODIUM],610

# Tested on: Pseudomonas aeruginosa
# Test: Growth inhibition of Pseudomonas aeruginosa PAO1
# Format: functional, organism-based
row,Compound,growth inhibition (GI)
1,NS(N)(=O)=O [SULFAMIDE],inactive
